# Reference: patent US12122816B2, “Long acting peptide tyrosine tyrosine (PYY) analogs and methods of use” (Intarcia Therapeutics, Inc., priority 2020, dated 2024)
# Read-outs that look alike come from different tables or passages of the source. Starred links: 1 amine or outer side, 2 acyl side, 3 side chain; linkers in the order of their positions; H or OH if unused. Residues, ends and D or L forms follow the SMILES beside them. Groups on a side chain read outwards from the residue. *: point of attachment. C20 diacid = O=C(O)CCCCCCCCCCCCCCCCCCC(=O)*; γGlu = O=C(O)[C@H](CCC(=O)[*:2])N[*:1]
# How the values were obtained:
# [1] = In vitro metabolic stability in kidney brush border membranes (kBBM); type: in vitro ADME; settings: 1 mcM peptide, 37° C.
# Experimental: In vitro incubations in kidney brush border membrane (kBBM) preparations were used to characterize the ability of peptides to resist degradation by proteases and peptidases in the systemic circulation. kBBM were selected because they contain a high concentration of a diverse set of proteases and peptidases, many of which are present throughout the body.
# Brush border membranes from rat and human kidney tissue were prepared via centrifugation and stored at −70° C. Thawed stocks of rat or human kBBM were diluted to the appropriate concentration in 25 mM HEPES buffer (pH 7.4) containing 1% casein and aliquoted into a 96-well plate. The kBBM solutions were pre-warmed for 10 minutes at 37° C. […] The final concentration of kBBM in each incubation was 50 mcg protein/mL. Reactions were maintained at 37° C. in a shaking water bath. […] Quenched samples were centrifuged at 2178×g for 10 min and then a portion of the supernatants were transferred to a clean 96-well plate and diluted 1:1 with water. Samples were analyzed by UPLC-MS/MS.
# [2] = In vitro stability in subcutaneous (SC) tissue homogenates; type: in vitro ADME; settings: subcutaneous tissue homogenate, pH 7.4; human SC tissue homogenate 1.0 mg protein/mL, 10 mcM peptide, 37° C.; read-out: (H)SC tissue stability t½ (converted)
# Experimental: In vitro incubations in subcutaneous (SC) tissue homogenates were used to characterize the ability of peptides to resist pre-systemic degradation by proteases and peptidases after SC administration. […] Peptides with high SC bioavailability are stable in this assay, while peptides with low SC bioavailability are unstable in this assay.
# Human SC tissue was homogenized in cold 25 mM HEPES buffer (pH 7.4, 10-fold volume based on sample weight), and then filtered through a double layer of cheesecloth. The filtrates were aliquoted, flash frozen on a methanol/dry ice bath and stored at −80° C. The protein concentration of each pooled batch was determined using the BCA protein assay. Thawed stocks of human SC tissue homogenates were diluted to 1.0 mg protein/mL in 25 mM HEPES buffer (pH 7.4) and aliquoted into a 96-well plate. The diluted SC homogenates were pre-warmed for 10 minutes at 37° C. […] Reactions were maintained at 37° C. in a shaking water bath. […] Quenched samples were centrifuged at 2178×g for 10 min and then a portion of the supernatants were transferred to a clean 96-well plate and diluted 1:10 with water. Samples were analyzed by UPLC-MS/MS.
# human Y2 receptor = biological target: T1, human Y2 receptor (Homo sapiens, UniProt P49146); test: NPY receptor functional assay (cAMP, HEK-CNG cells, ACTOne membrane potential dye); type: cell-based; settings: NPY2R pEC50, HEK-CNG cells; standard PYY(3-36); species (human or rat) not given
# T1 sequence (P49146 1-381): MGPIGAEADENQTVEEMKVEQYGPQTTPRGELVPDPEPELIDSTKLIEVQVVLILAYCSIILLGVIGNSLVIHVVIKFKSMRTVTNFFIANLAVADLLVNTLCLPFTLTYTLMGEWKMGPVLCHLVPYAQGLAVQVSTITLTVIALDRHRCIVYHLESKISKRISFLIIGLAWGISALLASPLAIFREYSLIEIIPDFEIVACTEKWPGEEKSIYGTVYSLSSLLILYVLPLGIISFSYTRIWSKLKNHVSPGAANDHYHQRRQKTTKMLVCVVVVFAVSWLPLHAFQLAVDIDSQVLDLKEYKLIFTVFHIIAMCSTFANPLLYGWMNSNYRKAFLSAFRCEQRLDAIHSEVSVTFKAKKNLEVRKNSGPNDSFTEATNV
# In short: (§1)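 HEK-CNG cells stably expressing each human receptor; peptides added in triplicate for 50 minutes at room temperature, with agonism read as decreased isoproterenol-induced membrane potential dye signal (final/initial read).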
# human Y5 receptor = biological target: T2, human Y5 receptor (Homo sapiens, UniProt Q15761); test: as above; type: cell-based; settings: NPY5R pEC50, HEK-CNG cells; standard NPY; species (human or rat) not given
# T2 sequence (Q15761 1-445): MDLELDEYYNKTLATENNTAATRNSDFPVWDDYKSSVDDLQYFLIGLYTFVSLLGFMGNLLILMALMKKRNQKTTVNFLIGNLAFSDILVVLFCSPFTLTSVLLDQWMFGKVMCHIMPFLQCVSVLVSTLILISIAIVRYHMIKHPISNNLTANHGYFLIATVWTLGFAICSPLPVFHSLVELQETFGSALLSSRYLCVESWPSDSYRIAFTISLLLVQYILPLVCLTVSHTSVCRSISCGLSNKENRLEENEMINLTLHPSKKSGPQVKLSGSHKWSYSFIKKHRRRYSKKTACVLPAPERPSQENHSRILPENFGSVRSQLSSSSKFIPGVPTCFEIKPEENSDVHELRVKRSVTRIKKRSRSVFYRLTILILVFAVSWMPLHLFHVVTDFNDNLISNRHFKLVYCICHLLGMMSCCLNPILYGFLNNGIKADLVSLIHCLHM
# In short: as §1
# [3] = pH 7.4, human kBBM 50 mcg protein/mL, read-out: hkBBM t½ (converted)
SMILES,"half-life at 1 mcM [1, 3]","half-life at 1 mcM ([1]; pH 7.4, rat kBBM 50 mcg protein/mL, read-out: rkBBM t½)",half-life at 10 mcM [2],EC50 (human Y2 receptor),EC50 (human Y5 receptor)
CC(C)C[C@H](NC(=O)[C@H](CC(=O)O)NC(=O)[C@H](CCCCNC(=O)CC[C@H](NC(=O)COCCOCCNC(=O)COCCOCCNC(=O)CC[C@H](NC(=O)CCCCCCCCCCCCCCCCCCC(=O)O)C(=O)O)C(=O)O)NC(=O)[C@H](Cc1ccc(O)cc1)NC(=O)[C@H](Cc1ccc(O)cc1)NC(=O)[C@H](CCCNC(=N)N)NC(=O)[C@H](CC(N)=O)NC(=O)[C@H](Cc1c[nH]c2ccccc12)NC(=O)[C@H](CCC(=O)O)NC(=O)[C@H](CCC(=O)O)NC(=O)[C@@H]1CCCN1C(=O)[C@H](CO)NC(=O)[C@H](C)NC(=O)[C@H](CC(=O)O)NC(=O)[C@H](CCCCN)NC(=O)CNC(=O)[C@@H]1CCCN1C(=O)[C@H](C)NC(=O)[C@H](CCC(=O)O)NC(=O)[C@@H]1CCCN1C(=O)[C@H](CCCCN)NC(=O)[C@@H]1CCCN1)C(=O)N[C@@H](CCCNC(=N)N)C(=O)N[C@@H](Cc1c[nH]cn1)C(=O)N[C@@H](Cc1ccc(O)cc1)C(=O)N[C@@H](CC(C)C)C(=O)N[C@@H](CC(N)=O)C(=O)N[C@@H](Cc1c[nH]c2ccccc12)C(=O)N[C@@H](CC(C)C)C(=O)N[C@H](C(=O)N[C@@H](CCCNC(=N)N)C(=O)N[C@@H](CCC(N)=O)C(=O)N[C@@H](CCCNC(=N)N)C(=O)N[C@@H](Cc1ccccc1)C(N)=O)[C@@H](C)O [Compound A16],> 12 h,> 12 h,7.3 h,0.0631 nM,0.794 nM
CC(C)C[C@H](NC(=O)[C@H](CC(=O)O)NC(=O)[C@H](CCCCN)NC(=O)[C@H](Cc1ccc(O)cc1)NC(=O)[C@H](Cc1ccc(O)cc1)NC(=O)[C@H](CCCNC(=N)N)NC(=O)[C@H](CC(N)=O)NC(=O)[C@H](Cc1c[nH]c2ccccc12)NC(=O)[C@H](CCC(=O)O)NC(=O)[C@H](CCCCN)NC(=O)[C@@H]1CCCN1C(=O)[C@H](CO)NC(=O)[C@H](C)NC(=O)[C@H](CC(=O)O)NC(=O)[C@H](CCCCNC(=O)CC[C@H](NC(=O)CC[C@H](NC(=O)CCCCCCCCCCCCCCCCCCC(=O)O)C(=O)O)C(=O)O)NC(=O)CNC(=O)[C@@H]1CCCN1C(=O)[C@H](CCCCN)NC(=O)[C@H](CCC(=O)O)NC(=O)[C@@H]1CCCN1C(=O)[C@H](CCCCN)NC(=O)[C@@H]1CCCN1)C(=O)N[C@@H](CCCNC(=N)N)C(=O)N[C@@H](Cc1c[nH]cn1)C(=O)N[C@@H](Cc1ccc(O)cc1)C(=O)N[C@@H](CC(C)C)C(=O)N[C@@H](CC(N)=O)C(=O)N[C@@H](Cc1c[nH]c2ccccc12)C(=O)N[C@@H](CC(C)C)C(=O)N[C@H](C(=O)N[C@@H](CCCNC(=N)N)C(=O)N[C@@H](CCC(N)=O)C(=O)N[C@@H](CCCNC(=N)N)C(=O)N[C@@H](Cc1ccccc1)C(N)=O)[C@@H](C)O [Compound A27] (H-PKPEKPGK([γGlu-γGlu-C20 diacid])DASPKEWNRYYKDLRHYLNWLTRQRF-NH2; N-terminus assumed),10 h,,0.2 h,0.02 nM,1.26 nM
CC(C)C[C@H](NC(=O)[C@H](CC(=O)O)NC(=O)[C@H](CCCCNC(=O)CC[C@H](NC(=O)CC[C@H](NC(=O)CCCCCCCCCCCCCCCCCCC(=O)O)C(=O)O)C(=O)O)NC(=O)[C@H](Cc1ccc(O)cc1)NC(=O)[C@H](Cc1ccc(O)cc1)NC(=O)[C@H](CCCNC(=N)N)NC(=O)[C@H](CC(N)=O)NC(=O)[C@H](Cc1c[nH]c2ccccc12)NC(=O)[C@H](CCC(=O)O)NC(=O)[C@H](CCCCN)NC(=O)[C@@H]1CCCN1C(=O)[C@H](CO)NC(=O)[C@H](C)NC(=O)[C@H](CC(=O)O)NC(=O)[C@H](CCCCN)NC(=O)CNC(=O)[C@@H]1CCCN1C(=O)[C@H](CCCCN)NC(=O)[C@H](CCC(=O)O)NC(=O)[C@@H]1CCCN1C(=O)[C@H](CCCCN)NC(=O)[C@@H]1CCCN1)C(=O)N[C@@H](CCCNC(=N)N)C(=O)N[C@@H](Cc1c[nH]cn1)C(=O)N[C@@H](Cc1ccc(O)cc1)C(=O)N[C@@H](CC(C)C)C(=O)N[C@@H](CC(N)=O)C(=O)N[C@@H](Cc1c[nH]c2ccccc12)C(=O)N[C@@H](CC(C)C)C(=O)N[C@H](C(=O)N[C@@H](CCCNC(=N)N)C(=O)N[C@@H](CCC(N)=O)C(=O)N[C@@H](CCCNC(=N)N)C(=O)N[C@@H](Cc1ccccc1)C(N)=O)[C@@H](C)O [Compound A28] (H-PKPEKPGKDASPKEWNRYYK([γGlu-γGlu-C20 diacid])DLRHYLNWLTRQRF-NH2; N-terminus assumed),5.2 h,,0.2 h,0.0316 nM,1.58 nM
CC(C)C[C@H](NC(=O)[C@H](CC(=O)O)NC(=O)[C@H](CCCCNC(=O)CC[C@H](NC(=O)CC[C@H](NC(=O)CCCCCCCCCCCCCCCCCCC(=O)O)C(=O)O)C(=O)O)NC(=O)[C@H](Cc1ccc(O)cc1)NC(=O)[C@H](Cc1ccc(O)cc1)NC(=O)[C@H](CCCNC(=N)N)NC(=O)[C@H](CC(N)=O)NC(=O)[C@H](Cc1c[nH]c2ccccc12)NC(=O)[C@H](CCC(=O)O)NC(=O)[C@H](CCCCN)NC(=O)[C@@H]1CCCN1C(=O)[C@H](CO)NC(=O)[C@H](C)NC(=O)[C@H](CC(=O)O)NC(=O)[C@H](CCC(=O)O)NC(=O)CNC(=O)[C@@H]1CCCN1C(=O)[C@H](CCCCN)NC(=O)[C@H](CCC(=O)O)NC(=O)[C@@H]1CCCN1C(=O)[C@H](CCCCN)NC(=O)[C@@H]1CCCN1)C(=O)N[C@@H](CCCNC(=N)N)C(=O)N[C@@H](Cc1c[nH]cn1)C(=O)N[C@@H](Cc1ccc(O)cc1)C(=O)N[C@@H](CC(C)C)C(=O)N[C@@H](CC(N)=O)C(=O)N[C@@H](Cc1c[nH]c2ccccc12)C(=O)N[C@@H](CC(C)C)C(=O)N[C@H](C(=O)N[C@@H](CCCNC(=N)N)C(=O)N[C@@H](CCC(N)=O)C(=O)N[C@@H](CCCNC(=N)N)C(=O)N[C@@H](Cc1ccccc1)C(N)=O)[C@@H](C)O [Compound A29],8.7 h,,1.1 h,0.0126 nM,1 nM
CC(C)C[C@H](NC(=O)[C@H](CC(=O)O)NC(=O)[C@H](CCCCNC(=O)CC[C@H](NC(=O)CC[C@H](NC(=O)CCCCCCCCCCCCCCCCCCC(=O)O)C(=O)O)C(=O)O)NC(=O)[C@H](Cc1ccc(O)cc1)NC(=O)[C@H](Cc1ccc(O)cc1)NC(=O)[C@H](CCCNC(=N)N)NC(=O)[C@H](CC(=O)O)NC(=O)[C@H](Cc1c[nH]c2ccccc12)NC(=O)[C@H](CCC(=O)O)NC(=O)[C@H](CCCCN)NC(=O)[C@@H]1CCCN1C(=O)[C@H](CO)NC(=O)[C@H](C)NC(=O)[C@H](CC(=O)O)NC(=O)[C@H](CCC(=O)O)NC(=O)CNC(=O)[C@@H]1CCCN1C(=O)[C@H](CCCCN)NC(=O)[C@H](CCC(=O)O)NC(=O)[C@@H]1CCCN1C(=O)[C@H](CCCCN)NC(=O)[C@@H]1CCCN1)C(=O)N[C@@H](CCCNC(=N)N)C(=O)N[C@@H](Cc1c[nH]cn1)C(=O)N[C@@H](Cc1ccc(O)cc1)C(=O)N[C@@H](CC(C)C)C(=O)N[C@@H](CC(N)=O)C(=O)N[C@@H](Cc1c[nH]c2ccccc12)C(=O)N[C@@H](CC(C)C)C(=O)N[C@H](C(=O)N[C@@H](CCCNC(=N)N)C(=O)N[C@@H](CCC(N)=O)C(=O)N[C@@H](CCCNC(=N)N)C(=O)N[C@@H](Cc1ccccc1)C(N)=O)[C@@H](C)O [Compound A34],6.7 h,,4.9 h,0.0631 nM,1.58 nM
